Columns and labels:
N-CAM = target: T1, N-CAM (Homo sapiens, UniProt P13591); experiment: Neurite outgrowth on N-CAM expressing 3T3 monolayers (Example 2); assay type: cell-based, mouse; settings: 500 μg/mL
T1 construct: expressed in transfected cells; host or cells: 3T3 fibroblasts (monolayer); mouse post-natal day 3 cerebellar neurons on top

[1] = test system: Madin Darby canine kidney (MDCK) cells; assay type: cell-based; settings: 18 h
[2] = test system: MKL-F cells, breast cancer tumors; experiment: Breast cancer tumors grown in nude mice; assay type: in vivo, mouse
Method: Breast cancer tumors were also grown in nude mice, as described above. After implanting tumor cells into the mammary fat pad, mice were injected once daily for four days with either the representative modulating agent N—Ac-CHAVC-NH2 (SEQ ID NO:10) or saline as a control. Mice were sacrificed 24 hours after the last injection, and tumors were photographed. […] These tumors are well vascularized.
MKL-F cells were injected into mammary fat pad, as described above, and the tumors were grown for 21 days before injection. Mice were then injected once daily for four days with either 20 mg/kg of the representative modulating agent N—Ac-CHAVC-NH2 (SEQ ID NO:10) or saline as a control. Mice were sacrificed 21 days after the last injection. Tumor volume was measured at day 18 following injection of cells, day 22 (following the first injection of modulating agent), and days 29, 32, 36, 39 and 42.

L1 = L1 (Homo sapiens, UniProt P32004); experiment: Neurite outgrowth of rat cerebellar neurons on L1 expressing 3T3 monolayers (Example 15); assay type: cell-based; parameters: expressed in transfected cells; rat cerebellar neurons on top; settings: 125 μg/ml; read-out: % Inhibition of L1 Response
Method: Cell culture and neurite outgrowth assays. Co-cultures of cerebellar neurons on monolayers of control 3T3 cells and monolayers of transfected 3T3 cells that express physiological levels of chick N-cadherin or human L1 were established as previously described (Williams et al., Neuron 13:583-594, 1994). In brief, 80,000 3T3 cells (control and transfected) were plated into individual chambers of an eight-chamber tissue culture slide coated with polylysine and fibronectin and cultured in DMEM/10% FCS. After 24 hours, when confluent monolayers had formed, the medium was removed and 3000 cerebellar neurons isolated from post-natal day 2-3 rats were plated into each well in SATO media (Doherty et al., Nature 343:464-466, 1990) supplemented with 2% FCS. All of the test peptides were added immediately before the neurons as a 2× stock prepared in SATO/2% FCS. The co-cultures were maintained for 16-18 hours, at which time they were fixed and immunostained for GAP-43 which is present only in the neurons and delineates the neuritic processes. The mean length of the longest neurite per cell was measured for 150-200 neurons sampled in replicate cultures as previously described (Williams et al., Neuron 13:583-594, 1994). […] Dose-response curves were evaluated and the EC50 values determined.
Other cell adhesion molecules, such as L1, can stimulate neurite outgrowth, and this response shares the same downstream signaling steps as the N-cadherin response. […] As previously reported, L1 stimulated neurite outgrowth from cerebellar neurons.

Chain of L1 (P32004 20-1257): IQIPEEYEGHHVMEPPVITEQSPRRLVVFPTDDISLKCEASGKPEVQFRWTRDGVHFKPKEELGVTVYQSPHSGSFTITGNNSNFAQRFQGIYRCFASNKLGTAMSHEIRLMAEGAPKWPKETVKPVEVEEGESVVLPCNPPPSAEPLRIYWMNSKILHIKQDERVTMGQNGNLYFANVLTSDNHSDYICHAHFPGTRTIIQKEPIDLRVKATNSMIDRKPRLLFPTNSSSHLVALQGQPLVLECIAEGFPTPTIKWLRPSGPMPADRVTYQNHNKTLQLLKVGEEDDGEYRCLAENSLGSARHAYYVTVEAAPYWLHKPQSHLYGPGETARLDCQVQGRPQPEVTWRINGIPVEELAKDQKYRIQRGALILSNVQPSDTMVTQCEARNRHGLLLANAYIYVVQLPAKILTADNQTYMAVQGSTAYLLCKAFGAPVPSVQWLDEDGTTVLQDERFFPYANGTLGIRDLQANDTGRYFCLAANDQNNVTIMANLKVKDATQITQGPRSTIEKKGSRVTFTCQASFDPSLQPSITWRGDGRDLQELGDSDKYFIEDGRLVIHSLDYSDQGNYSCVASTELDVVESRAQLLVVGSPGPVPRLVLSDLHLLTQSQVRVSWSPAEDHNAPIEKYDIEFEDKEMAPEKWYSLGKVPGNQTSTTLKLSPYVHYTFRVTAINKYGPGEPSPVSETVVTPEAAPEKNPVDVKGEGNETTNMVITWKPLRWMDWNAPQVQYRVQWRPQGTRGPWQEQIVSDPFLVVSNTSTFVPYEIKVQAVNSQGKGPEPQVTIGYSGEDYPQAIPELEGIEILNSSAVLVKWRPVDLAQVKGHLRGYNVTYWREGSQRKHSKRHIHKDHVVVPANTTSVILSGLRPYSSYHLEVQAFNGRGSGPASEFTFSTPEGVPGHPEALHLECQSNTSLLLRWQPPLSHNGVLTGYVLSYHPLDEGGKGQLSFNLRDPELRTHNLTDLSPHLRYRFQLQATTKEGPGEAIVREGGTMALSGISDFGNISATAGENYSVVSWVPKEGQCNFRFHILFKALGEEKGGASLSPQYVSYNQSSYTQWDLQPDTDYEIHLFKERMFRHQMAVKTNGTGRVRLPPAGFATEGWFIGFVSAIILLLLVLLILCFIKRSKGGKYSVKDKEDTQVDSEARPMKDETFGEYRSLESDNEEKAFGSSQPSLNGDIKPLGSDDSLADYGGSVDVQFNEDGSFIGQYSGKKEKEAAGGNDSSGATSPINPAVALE
T1 sequence (P13591 20-858, species assumed): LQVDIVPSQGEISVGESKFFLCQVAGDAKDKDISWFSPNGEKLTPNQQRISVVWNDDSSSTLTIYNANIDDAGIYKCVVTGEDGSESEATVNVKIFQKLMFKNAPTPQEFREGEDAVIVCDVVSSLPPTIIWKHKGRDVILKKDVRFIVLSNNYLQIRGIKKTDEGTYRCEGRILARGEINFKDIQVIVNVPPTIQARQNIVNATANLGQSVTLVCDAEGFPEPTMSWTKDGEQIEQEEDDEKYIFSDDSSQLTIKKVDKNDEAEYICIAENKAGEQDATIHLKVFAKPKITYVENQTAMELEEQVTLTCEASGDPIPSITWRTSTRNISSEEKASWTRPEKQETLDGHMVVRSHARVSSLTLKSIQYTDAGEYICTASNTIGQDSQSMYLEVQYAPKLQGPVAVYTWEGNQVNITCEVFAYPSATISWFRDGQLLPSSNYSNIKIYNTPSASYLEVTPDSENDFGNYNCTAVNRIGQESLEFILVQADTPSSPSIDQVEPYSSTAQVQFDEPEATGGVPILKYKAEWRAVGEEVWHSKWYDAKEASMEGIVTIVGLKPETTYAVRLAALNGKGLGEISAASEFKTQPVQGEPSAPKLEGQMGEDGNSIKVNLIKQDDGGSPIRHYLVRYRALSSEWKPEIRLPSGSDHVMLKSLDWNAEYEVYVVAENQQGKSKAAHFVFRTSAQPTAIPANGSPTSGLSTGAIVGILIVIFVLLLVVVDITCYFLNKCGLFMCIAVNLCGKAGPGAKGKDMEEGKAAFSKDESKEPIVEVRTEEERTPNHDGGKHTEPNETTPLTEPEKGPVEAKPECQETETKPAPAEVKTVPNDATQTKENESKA

For `CC(=O)N[C@H]1CSSC[C@@H](C(N)=O)NC(=O)[C@H](C(C)C)NC(=O)[C@H](C)NC(=O)[C@H](Cc2c[nH]cn2)NC1=O` [N—Ac—CHAVC—NH2, N-Ac-Cys-His-Ala-Val-Cys-NH2], the “inhibition of neurite outgrowth on 3T3 cells expressing N-CAM” value (N-CAM) was “did not inhibit neurite outgrowth”, the EC50 [1] was 270 µM and the breast tumor growth ([2]; once daily for four days) was “slow tumor growth”. The “appearance of breast tumors (blood vessels)” value ([2]; once daily for four days (20 mg/kg), 24 hours after last injection) was “extensive rupturing of blood vessels” and the inhibition at 125 µg/mL (L1) was 41.6 ± 8.6%.

Source: patent publication US20040106545A1, “Compounds and methods for modulating cell adhesion” (priority 1996, published 2004)
